Experiments:
HIV NL43-GFP [1] = experiment: HIV NL43-GFP infection of CD8-depleted, CD3/CD28-stimulated PBMC transduced with lentiviral vector encoding 3BNC117 (Example 3); assay type: cell-based; conditions: day six, FIG. 6
From the text: Method: On day 0, PBMC were depleted of CD8+ T cells and then stimulated with TransAct (CD3/CD28 beads) (MiltenyiBiotec). On day 1, the PBMC were transduced with a lentiviral vectors expressing the broadly neutralizing antibody (bNAb) against HIV (SEQ ID NO:4; AGT112). The components of the vectors are described in Table 2. The AGT112 vector (SEQ ID NO: 4) contains a CMV promoter (SEQ ID NO: 13) that drives expression of a 3BNC117 antibody sequence that contains an IL-2 secretory sequence (SEQ ID NO: 74 (3BNC117 heavy variable chain (with IL-2 secretory sequence)) and SEQ ID NO: 75 (3BNC117 light variable chain (with IL-2 secretory sequence)). The IL-2 secretory sequence is SEQ ID NO: 11.
On day two (2), the PBMC were then infected with HIV NL43-GFP. On day three, cells were washed three times. On day six, HIV-infected GFP positive cells were measured. This protocol is shown in FIG. 5 but here LV-3BNC117 was substituted for LV-VRC01.

HIV NL43-GFP [2] = experiment: HIV NL43-GFP infection of PBMC transduced with sCD4 lentiviral vectors (Example 4); assay type: cell-based; conditions: columns NL43+sCD4 / NL43-sCD4-Ig / NL43-Saquinavir
From the text: Method: On day 0, PBMC were depleted of CD8+ T cell and then stimulated with TransAct (CD3/CD28 beads) (MiltenyiBiotec). On day 1, PBMC were transduced with lentiviral vectors expressing sCD4 (SEQ ID NO: 8 (AGT116) and SEQ ID NO: 10 (AGT117)).
The components of the vectors are described in Table 2. The AGT116 vector (SEQ ID NO: 8) contains a sCD4 sequence (SEQ ID NO: 7) and an EF-1α promoter (SEQ ID NO: 14) upstream of the sCD4 sequence. The AGT117 vector (SEQ ID NO: 10) contains a sCD4-IgG1 Fc sequence (SEQ ID NO: 9) and an EF-1α promoter (SEQ ID NO: 14) upstream of the sCD4-IgG1 Fc sequence.
On day 2, the PBMC were infected with HIV NL43-GFP. On day 3, the cells were washed three times. Cells were then […]. On day 6, HIV-infected GFP positive cells were measured.

[3] = test system: HIV recombinant strain NL43 that expresses GFP; experiment: HIV NL43-GFP infection of primary CD4 T cells transduced with AGT111 at various MOI (Example 7); assay type: cell-based; conditions: 200 nM saquinavir
Experimental: Method: CD4 T cells were separated by negative selection and stimulated for 1 day with TransAct (CD3/CD28 beads) (Miltenyi Biotec) plus IL-2 (30 U/mL) (Thermo Fisher Scientific) and then transduced with lentivirus vector AGT111 (SEQ ID NO: 2) at various MOI.
One day later, cells were infected with 1 MOI of HIV recombinant strain NL43 that expresses GFP. […] As a control, HIV infected cells were treated with 200 nM saquinavir. At the end of the culture, cells were collected and analyzed by flow cytometry for GFP expression and with an APC anti-CD4 antibody. If the CD4 cell expresses GFP, it was infected by HIV.

[4] = test system: HIV Gag-specific CD4 T cells; experiment: Antibody (IgG Fc) expression by HIV Gag-specific CD4 T cells after peptide stimulation (Example 5); assay type: cell-based, human; conditions: for cells positive for IgG Fc: MOI 5
Experimental: Method: To measure antibody expression by HIV Gag-specific CD4 T cells, HIV positive human peripheral blood mononuclear cells (PBMCs) were separated with Ficoll-Paque PLUS (GE Healthcare, Cat: 17-1440-02). Separated PBMCs (1×10^7) were stimulated with PepMix™ HIV (GAG) Ultra (Cat: PM-HIV-GAG, JPT Peptide Technologies) in 1 mL medium in a 24-well plate for 18 hours. CD8 T, γδ, NK, and B cells were depleted with PE labeled specific antibodies and anti-PE microbeads. The negatively selected cells were cultured at 2×10^6/mL in TexMACS GMP medium (Cat: 170-076-309, Miltenyi Biotec) containing IL7 (170-076-111, Miltenyi Biotec), IL15 (170-076-114, Miltenyi Biotec) and saquinavir (Cat: 4658, NIH AIDS Reagent Program). The lentivirus vector AGT111 (SEQ ID NO: 2) encoding anti-HIV antibody VRC01 or AGT112 (SEQ ID NO: 4) encoding anti-HIV antibody 3BNC117 was added 24 hours later at a multiplicity of infection (MOI) of 5.
Fresh medium containing IL7, IL15, and saquinavir was added every 2-3 days during cell expansion. The starting concentration of IL7 and IL15 was 10 ng/mL. On day 12-16, 2-3×10^6 cells were collected for peptide stimulation. The intracellular expression of IFNγ and IgG Fc was detected with a PE anti-IFNγ antibody and an APC anti-IgG1 Fc antibody (Biolegend).

[5] = test system: HIV recombinant strain NL43 that expresses GFP; experiment: HIV NL43-GFP infection of primary CD4 T cells transduced with AGT103 or AGT118 (Example 17); assay type: cell-based
From the text: Method: CD4 T cells were separated by negative selection and stimulated for 1 day with TransAct (CD3/CD28 beads) (Miltenyi Biotec) plus IL-2 (30 U/mL) (Thermo Fisher Scientific) and then transduced with lentivirus AGT103 (SEQ ID NO: 78) or AGT118 (SEQ ID NO: 80) at a MOI of 5. The AGT103 vector (SEQ ID NO: 78) contains an EF-1α promoter (SEQ ID NO: 14) that drives expression of the miR30-CCR5/miR21-Vif/mir185-Tat microRNA cluster sequence (SEQ ID NO: 65) (miR30-CCR5/miR21-Vif/miR185-Tat microRNA cluster sequence). The miR30-CCR5 sequence is SEQ ID NO: 62. The miR21-Vif sequence is SEQ ID NO: 63. The miR185-Tat sequence is SEQ ID NO: 64. The AGT118 vector (SEQ ID NO: 80) contains an EF-1α promoter (SEQ ID NO: 14) that drives expression of sCD4(D1+D2)-IgG1 Fc (SEQ ID NO: 9) and the miR30-CCR5/miR21-Vif/miR185-Tat microRNA cluster sequence (SEQ ID NO: 65).
One day later, cells were infected with 1 MOI of HIV recombinant strain NL43 that expresses GFP. After 24 hours, CD3/CD28 beads, lentivirus and HIV were removed by washing 3 times with PBS and cultured in RPMI 1640 medium (Thermo Fisher Scientific) containing 10% FBS (Gemini Bio) and 1% Pen-Strep (Thermo Fisher Scientific) with IL-2 (30 U/mL) in a 37° C. incubator at 5% C02 for 7 days with medium supplementation as needed. At the end of the culture, cells were collected and analyzed by flow cytometry. […]

## CC(C)(C)NC(=O)[C@@H]1C[C@@H]2CCCC[C@@H]2CN1C[C@@H](O)[C@H](Cc1ccccc1)NC(=O)[C@H](CC(N)=O)NC(=O)c1ccc2ccccc2n1 [Saquinavir, saquinavir]
HIV NL43-GFP [1]; NY025 donor
  GFP positive cells: 0.025%
HIV NL43-GFP [1]; NY026 donor
  GFP positive cells: 2.43E-3%
HIV NL43-GFP [2]; FIG. 8A bottom row
  percent of GFP positive cells: 0.017%
HIV NL43-GFP [2]; FIG. 8B bottom row
  percent of GFP positive cells: 0.026%
[3]; day 5
  percentage of GFP positive cells: 0.19%
[3]; day 7
  percentage of GFP positive cells: 0.22%
[3]; day 9
  percentage of GFP positive cells: 0.24%

B1: 3BNC117: human IgG1 monoclonal antibody targeting the CD4 binding site on HIV gp160; expressed in cells from vector AGT112 (protein)
chain 1: MYRMQLLSCIALSLALVTQVQLLQSGAAVTKPGASVRVSCEASGYNIRDYFIHWWRQAPGQGLQWVGWINPKTGQPNNPRQFQGRVSLTRHASWDFDTFSFYMDLKALRSDDTAVYFCARQRSDYWDFDVWGSGTQVTVSSASTKGP
chain 2: MYRMQLLSCIALSLALVTDIQMTQSPSSLSASVGDTVTITCQANGYLNWYQQRRGKAPKLLIYDGSKLERGVPSRFSGRRWGQEYNLTINNLQPEDIATYFCQVYEFVVPGTRLDLKRTVAAP
modifications: constant regions lack entries; misc_feature 1..441 3BNC117 Heavy Variable Chain (with IL-2 secretory signal); misc_feature 1..369 3BNC117 Light Variable Chain (with IL-2 secretory signal)
notes: expressed in cells from vector AGT112
HIV NL43-GFP [1]; NY025 donor
  GFP positive cells: 1.79%
HIV NL43-GFP [1]; NY026 donor
  GFP positive cells: 0.30%
[4]; Gag PepMix vs DMSO
  increase in fluorescence intensity of IgG relative to DMSO treated cells: approximately 10 fold
[4]; stimulation with Gag PepMix on day 12
  cells positive for IgG Fc: 1.58%
[4]; treated with DMSO (no peptide)
  cells positive for IgG Fc: 0.13%

B2: AGT103: Vector encoding inhibitory RNA sequences targeting CCR5 and HIV Vif/Tat with EF-1α promoter (SEQ ID NO: 78) (nucleic acid)
DNA: CCGGTGCCTAGAGAAGGTGGCGCGGGGTAAACTGGGAAAGTGATGTCGTGTACTGGCTCCGCCTTTTTCCCGAGGGTGGGGGAGAACCGTATATAAGTGCAGTAGTCGCCGTGAACGTTCTTTTTCGCAACGGGTTTGCCGCCAGAACACAGGTAAGTGCCGTGTGTGGTTCCCGCGGGCCTGGCCTCTTTACGGGTTATGGCCCTTGCGTGCCTTGAATTACTTCCACGCCCCTGGCTGCAGTACGTGATTCTTGATCCCGAGCTTCGGGTTGGAAGTGGGTGGGAGAGTTCGAGGCCTTGCGCTTAAGGAGCCCCTTCGCCTCGTGCTTGAGTTGAGGCCTGGCCTGGGCGCTGGGGCCGCCGCGTGCGAATCTGGTGGCACCTTCGCGCCTGTCTCGCTGCTTTCGATAAGTCTCTAGCCATTTAAAATTTTTGATGACCTGCTGCGACGCTTTTTTTCTGGCAAGATAGTCTTGTAAATGCGGGCCAAGATCTGCACACTGGTATTTCGGTTTTTGGGGCCGCGGGCGGCGACGGGGCCCGTGCGTCCCAGCGCACATGTTCGGCGAGGCGGGGCCTGCGAGCGCGGCCACCGAGAATCGGACGGGGGTAGTCTCAAGCTGGCCGGCCTGCTCTGGTGCCTGGCCTCGCGCCGCCGTGTATCGCCCCGCCCTGGGCGGCAAGGCTGGCCCGGTCGGCACCAGTTGCGTGAGCGGAAAGATGGCCGCTTCCCGGCCCTGCTGCAGGGAGCTCAAAATGGAGGACGCGGCGCTCGGGAGAGCGGGCGGGTGAGTCACCCACACAAAGGAAAAGGGCCTTTCCGTCCTCAGCCGTCGCTTCATGTGACTCCACGGAGTACCGGGCGCCGTCCAGGCACCTCGATTAGTTCTCGAGCTTTTGGAGTACGTCGTCTTTAGGTTGGGGGGAGGGGTTTTATGCGATGGAGTTTCCCCACACTGAGTGGGTGGAGACTGAAGTTAGGCCAGCTTGGCACTTGATGTAATTCTCCTTGGAATTTGCCCTTTTTGAGTTTGGATCTTGGTTCATTCTCAAGCCTCAGACAGTGGTTCAAAGTTTTTTTCTTCCATTTCAGGTGTCGTGATGTACAAGGTATATTGCTGTTGACAGTGAGCGACTGTAAACTGAGCTTGCTCTACTGTGAAGCCACAGATGGGTAGAGCAAGCACAGTTTACCGCTGCCTACTGCCTCGGACTTCAAGGGGCTTCCCGGGCATCTCCATGGCTGTACCACCTTGTCGGGGGATGTGTACTTCTGAACTTGTGTTGAATCTCATGGAGTTCAGAAGAACACATCCGCACTGACATTTTGGTATCTTTCATCTGACCAGCTAGCGGGCCTGGCTCGAGCAGGGGGCGAGGGATTCCGCTTCTTCCTGCCATAGCGTGGTCCCCTCCCCTATGGCAGGCAGAAGCGGCACCTTCCCTCCCAATGACCGCGTCTTCGTC
modifications: misc_feature 1..1469 AGT103
[5]; primary CD4 T cells, MOI of 5
  cells HIV positive: 0.86%
[5]; vs control treated cells
  decrease in HIV infection: 75.6%

Source: US20240141374A1, “ON DEMAND EXPRESSION OF EXOGENOUS FACTORS IN LYMPHOCYTES” (priority 0001, published 2024)
